Assays:
[1] = Thermal stability to iodine loss during the deprotection reaction; format: physicochemical; conditions: during the deprotection reaction (6M HCl, 100° C., 10 minutes), compared to MIBG
Description: The residue in the reactor vial was dissolved in 200 μl of 6M HCl, and heated at 100° C. for 10 minutes. The solution was allowed to cool for one minute and neutralized with 120 μl of 10M NaOH. A reverse phase (C18) sep pak was rinsed with ethanol (10 mL) and water (10 mL) and blown dry. The neutralized solution ([…]) was passed through the sep pak and the sep pak was rinsed with 2 mL of water (to elute any remaining salts) and blown dry. Ethanol (0.8 mL) was passed through the sep pak to elute the radiolabeled benzylguanidine derivative. Ethanol was removed using a stream of nitrogen before the material was purified by HPLC.
124I-2,4-difluoro-3-iodobenzylguanidine was prepared in 80±6% radiochemical yield (n=4) at the 1-2 mCi scale using the procedure outlined in Example 26. Following isolation, the product was >99% chemically and radiochemically pure, as assayed by HPLC.

[2] = Imaging (PET/CT) and biodistribution study of 124I-MIBG prepared using two methods; format: in vivo; conditions: male Sprague-Dawley rats, single intravenous dose, PET/CT scans at 1, 4, and 24 hours post injection; diaryliodonium salt precursor preparation vs conventional method (stannylated resin precursor)
Description: To determine whether the method of preparation of MIBG affected the biodistribution of the compound, high specific activity ^124I-MIBG was prepared using the diaryliodonium salt method (Example 27) and the conventional stannylated resin precursor; these compounds were imaged in rodent models.
Eight male Sprague-Dawley rats were used for the study. Upon arrival at the laboratory, each animal was inspected, uniquely identified with the animal number written on their tails, and weighed. The animals were judged to be in good health and were immediately placed in acclimation. Animals were between 6-14 weeks of age and weighed 440.5±36.4 g.
After a single intravenous dose of ^124I-MIBG prepared by diaryliodonium salt precursor, or ^124I-MIBG prepared with conventional method, Sprague-Dawley rats were given PET/CT scans at 1, 4, and 24 hours post injection of radiotracer. Biodistribution analysis was performed to quantify the amount of uptake in each animal's heart, liver, kidneys, thyroid, quadriceps muscle, and whole body as a function of time. Data is presented in units of μCi, μCi/mm3, % ID, and % ID/g. The radiochemical purity of all compounds as assessed by HPLC was >97% within an hour of administration.

Row | Compound | thermal stability to iodine loss [1] | biodistribution (uptake in heart, liver, kidneys, thyroid, quadriceps muscle, and whole body as a function of time) [2]
1 | N=C(N)NCc1ccc(F)c([124I])c1F [124I-2,4-difluoro-3-iodobenzylguanidine, ^124I-2,4-difluoro-3-iodobenzylguanidine] | greater thermal stability to iodine loss | –
2 | NC(N)=NCc1cccc([124I])c1 [^124I-MIBG] | – | no noted qualitative or quantitative difference

From patent US10053423B2, “Radioiodinated compounds” (NUtech Ventures, priority 2014, dated 2018)
